Experimental data as given in PubChem BioAssay AID1912 (The Scripps Research Institute Molecular Screening Center, 2009).
Activity calls are given as the source filed them. No rule for the calls is given here.

Target: Luciferin 4-monooxygenase (Photinus pyralis) (UniProt P08659)
Assay: native FLuc inhibition dose response – biochemical, luminescence, artefact control for HSP90 inhibitor project (AID 1912)
Settings: purified firefly luciferase

Chain of Luciferin 4-monooxygenase (Photinus pyralis) (P08659 whole entry, looked up): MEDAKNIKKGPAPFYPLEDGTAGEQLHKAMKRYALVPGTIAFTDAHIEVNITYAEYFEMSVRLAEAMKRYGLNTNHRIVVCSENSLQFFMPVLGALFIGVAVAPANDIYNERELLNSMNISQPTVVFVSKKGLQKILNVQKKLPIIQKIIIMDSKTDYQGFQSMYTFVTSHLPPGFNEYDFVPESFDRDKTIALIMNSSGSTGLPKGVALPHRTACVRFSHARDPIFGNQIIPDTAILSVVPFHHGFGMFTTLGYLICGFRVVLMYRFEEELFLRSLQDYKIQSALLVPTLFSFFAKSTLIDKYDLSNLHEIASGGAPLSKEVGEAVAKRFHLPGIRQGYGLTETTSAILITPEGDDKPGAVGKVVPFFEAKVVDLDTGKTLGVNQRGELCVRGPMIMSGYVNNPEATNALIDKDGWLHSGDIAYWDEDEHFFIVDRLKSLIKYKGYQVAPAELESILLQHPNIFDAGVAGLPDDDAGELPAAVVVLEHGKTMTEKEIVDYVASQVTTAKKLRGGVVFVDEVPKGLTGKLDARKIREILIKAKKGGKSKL

IC50 | SMILES
> 60 µM (inactive) | O=C(O)c1ccc(S(=O)(=O)/N=C2\C=C(Nc3ccccc3F)C(=O)c3ccccc32)cc1
> 60 µM (inactive) | COc1cccc(-c2cc3nc4c(c(NCC(C)(C)CN(C)C)n3n2)CCCC4)c1
> 60 µM (inactive) | O=[N+]([O-])c1ccc(N=Nc2ncc[nH]2)cc1
inactive | CCCc1ccc(OCc2ccc(C(=O)N3CCSCC3)o2)cc1
> 60 µM (inactive) | CC(=O)Nc1ccc(OS(=O)(=O)c2ccc([N+](=O)[O-])cc2)cc1
> 60 µM (inactive) | CCCCn1c(NC(=O)c2ccccc2Cl)c(C#N)c2nc3ccccc3nc21
> 60 µM (inactive) | O=C(O)c1ccc(NC2=C/C(=N/S(=O)(=O)c3ccccc3)c3ccccc3C2=O)cc1
> 60 µM (inactive) | CC(=O)Nc1ccc(NC2=C/C(=N/S(=O)(=O)c3cccs3)c3ccccc3C2=O)cc1
> 60 µM (inactive) | COCC(C)n1c(C)cc(C(=O)Cn2nc(C(=O)O)c3ccccc3c2=O)c1C (stereo unspecified)
> 60 µM (inactive) | C=CCOc1c(CNc2cccc(C(=O)O)c2)cccc1OC
> 60 µM (inactive) | CCC(C)c1ccc(OCc2ccc(C(=O)OC)o2)cc1 (stereo unspecified)
> 60 µM (inactive) | Cc1ccc(C(=O)CN2C(=O)c3ccccc3S2(=O)=O)cc1
> 60 µM (inactive) | Cc1c(-c2nc(-c3ccc(C(F)(F)F)cc3)no2)n(C)oc1=O
> 60 µM (inactive) | CN(C)c1ccc(C2Nc3cccc4cccc(c34)N2)cc1
> 60 µM (inactive) | C=CCc1ccc(OCc2ccc(C(=O)OC)o2)c(OC)c1
inactive | Cc1ccc(OCc2ccc(C(=O)O)o2)cc1C
> 60 µM (inactive) | COc1cc(/C=N/Nc2ccc(Cl)c(C(=O)O)c2)ccc1OC(=O)c1cccs1
> 60 µM (inactive) | O=c1oc2ccc(Cl)cc2nc1/C=C(\O)c1cccs1
> 60 µM (inactive) | CC1CCN(c2ccc(-c3cccc(NC(=O)C(F)(F)F)c3)nn2)CC1
> 60 µM (inactive) | O=C(O)CSCC(=O)Nc1ccc(C2CCCCC2)cc1
> 60 µM (inactive) | Cc1ccc2nc(NC(=O)CSCC(=O)OCC(=O)c3ccccc3)sc2c1
> 60 µM (inactive) | Cc1ccc(S(=O)(=O)/N=C2\C=C(Nc3cccc(C(=O)O)c3)C(=O)c3ccccc32)cc1
> 60 µM (inactive) | CCOC(=O)c1csc(NC(=O)c2cc3ccccc3o2)n1
> 60 µM (inactive) | Cc1nc(NC(=O)c2cccc(Cl)c2)sc1C(=O)N1CCCCC1
> 60 µM (inactive) | Cc1nc(NC(=O)/C=C/c2ccccc2)sc1C(=O)Nc1ccccc1Cl
> 60 µM (inactive) | COC(=O)C1CCN(C(=O)c2ccc3nc(-c4cccc(OC)c4)oc3c2)CC1
